Here are results for 2 compounds from patent US20100317581A1, “Ipamorelin Diacetate Injection and Infusion Solutions” (Helsinn Therapeutics (U.S.), Inc., priority 2009, published 2010).

In brackets after ≈: the same amount, converted by molar mass. Where a name gives a salt, the structure may show the parent alone. Read-outs that look alike come from different tables or passages of the source. Where a SMILES comes first, the peptide text is derived from it. [ ]: non-standard residue; d: D form. d2Nal = N[C@H](Cc1ccc2ccccc2c1)C(=O)O; Aib = CC(C)(N)C(=O)O

This data set in a line: Solubility as a function of pH / solubility in pure water. The data set is classed as physicochemical. How it is done: The solubility of ipamorelin free base at different pH values is shown graphically in FIG. 1. At pH values less than approximately 10, the drug is very soluble in aqueous media (>100 mg/ml).
This dramatic change in solubility around pH 10 is reflected in the solubilities of ipamorelin free base and its diacetate salt in pure water. The diacetate salt dissolves readily: it is capable of producing solutions greater than 100 mg/ml, with a final pH of about 7.5. The free base is much less soluble; only about 1.5 mg/ml was measured in a saturated solution, pH=9.83. However, solutions of much higher concentration can be achieved by simply adjusting the pH to around neutrality, using a solution of HCl or a similar acid.

The solubility is the concentration that dissolves in the medium under given conditions. In the case of `CC(C)(N)C(=O)N[C@@H](Cc1c[nH]cn1)C(=O)N[C@H](Cc1ccc2ccccc2c1)C(=O)N[C@H](Cc1ccccc1)C(=O)N[C@@H](CCCCN)C(N)=O` [diacetate salt] (H-[Aib]H[d2Nal][dF]K-NH2), for the setting “pH 7.5, pure water, final pH of about 7.5, read-out: solubility in pure water”, the solubility is greater than 100 mg/mL.
In the case of `CC(C)(N)C(=O)N[C@@H](Cc1c[nH]cn1)C(=O)N[C@H](Cc1ccc2ccccc2c1)C(=O)N[C@H](Cc1ccccc1)C(=O)N[C@@H](CCCCN)C(N)=O` [ipamorelin free base, α-Methylalanine-L-histidine-D-β-(2-naphthyl)-alanine-D-phenylalanine-L-lysinamide] (H-[Aib]H[d2Nal][dF]K-NH2), the solubility (aqueous media, pH values less than approximately 10, read-out: solubility in aqueous media) is greater than 100 mg/mL and the solubility (pure water, saturated solution, pH=9.83, read-out: solubility in pure water (saturated solution)) is roughly 1.5 mg/mL (≈ 2110 µM).
